From ChEMBL document CHEMBL1201862, “PubChem BioAssay data set” (2004)
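96-well plates; 48 h exposure; 5 concentrations. Endpoints by linear interpolation between flanking doses. Not reached: highest tested concentration assigned. GI50 = concentration required for 50% inhibition of growth.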 The source made the active and inactive calls. Rule as the data show it: active = GI50 up to about 1.1 µM and inactive = higher.

Tests used:
Test in all cases: NCI tumour cell line growth inhibition, 48 h
UO-31 = system: UO-31
M14 = system: M14
U-251 = system: U-251
Malme-3M = system: Malme-3M
OVCAR-8 = system: OVCAR-8
ACHN = system: ACHN
NCI-H460 = system: NCI-H460
SK-MEL-5 = system: SK-MEL-5
RXF 393 = system: RXF 393
NCI/ADR-RES = system: NCI/ADR-RES
BT-549 = system: BT-549
HOP-92 = system: HOP-92
HT-29 = system: HT-29
K562 = system: K562
SN12C = system: SN12C
EKVX = system: EKVX
MDA-MB-231 = system: MDA-MB-231
SF-539 = system: SF-539
MCF7 = system: MCF7
COLO 205 = system: COLO 205

Row | SMILES | GI50 (UO-31) | GI50 (M14) | GI50 (U-251) | GI50 (Malme-3M) | GI50 (OVCAR-8) | GI50 (ACHN) | GI50 (NCI-H460) | GI50 (SK-MEL-5) | GI50 (RXF 393) | GI50 (NCI/ADR-RES) | GI50 (BT-549) | GI50 (HOP-92) | GI50 (HT-29) | GI50 (K562) | GI50 (SN12C) | GI50 (EKVX) | GI50 (MDA-MB-231) | GI50 (SF-539) | GI50 (MCF7) | GI50 (COLO 205)
1 | O=C(O)c1cc(O)nc(SCc2ccccc2)n1 | > 100 µM (inactive) | > 100 µM (inactive) | > 100 µM (inactive) | > 100 µM (inactive) | > 100 µM (inactive) | > 100 µM (inactive) | > 100 µM (inactive) | > 100 µM (inactive) | > 100 µM (inactive) | > 100 µM (inactive) | > 100 µM (inactive) | > 100 µM (inactive) | > 100 µM (inactive) | > 100 µM (inactive) | > 100 µM (inactive) | > 100 µM (inactive) | > 100 µM (inactive) |  |  | 
2 | OCC1OC(n2nc(-c3ccccc3)nc2-c2cnccn2)C(O)C1O (configuration not stated) | > 100 µM (inactive) | > 100 µM (inactive) | > 100 µM (inactive) |  | > 100 µM (inactive) |  | > 100 µM (inactive) | > 100 µM (inactive) |  | > 100 µM (inactive) | > 100 µM (inactive) | > 100 µM (inactive) | > 100 µM (inactive) | > 100 µM (inactive) | > 100 µM (inactive) | > 100 µM (inactive) | > 100 µM (inactive) | > 100 µM (inactive) | > 100 µM (inactive) | > 100 µM (inactive)
3 | CSC1(Cc2ccccn2)C(=O)Nc2cccc([N+](=O)[O-])c21 (configuration not stated) | > 100 µM (inactive) | > 100 µM (inactive) | > 100 µM (inactive) | 47.9 µM (inactive) | > 100 µM (inactive) | > 100 µM (inactive) | > 100 µM (inactive) | > 100 µM (inactive) |  | > 100 µM (inactive) | > 100 µM (inactive) | > 100 µM (inactive) | > 100 µM (inactive) |  | > 100 µM (inactive) | > 100 µM (inactive) | > 100 µM (inactive) | > 100 µM (inactive) | 76 µM (inactive) | > 100 µM (inactive)
4 | CC(=O)n1cc(OP(=O)(Oc2ccccc2)Oc2ccccc2)c2ccccc21 | 22.1 µM (inactive) | 18.9 µM (inactive) | 33.5 µM (inactive) | 36.4 µM (inactive) | 39.7 µM (inactive) |  | 22.6 µM (inactive) | 19 µM (inactive) |  | 16.7 µM (inactive) | 34.4 µM (inactive) |  | 36 µM (inactive) | 23.2 µM (inactive) | 29.2 µM (inactive) |  | 24.8 µM (inactive) | 15.8 µM (inactive) | 10.1 µM (inactive) | 13.2 µM (inactive)
5 | C[C@@H](c1ccccc1)n1c(N)c(C#N)c2ccc([N+](=O)[O-])cc2c1=O | 5.12 µM (inactive) |  | 18.7 µM (inactive) |  | 12 µM (inactive) | 14.9 µM (inactive) | 14.5 µM (inactive) | 16.7 µM (inactive) |  | 7.1 µM (inactive) | 1.69 µM (inactive) | 7.13 µM (inactive) | 14.5 µM (inactive) | 12.8 µM (inactive) | 12 µM (inactive) |  | 14.9 µM (inactive) |  |  | 15 µM (inactive)
6 | O=C1CSC(c2ccccc2O)N1c1ccc(Oc2ccc(Cl)cc2)c(Cl)c1 (configuration not stated) | 5.94 µM (inactive) | 29.8 µM (inactive) | 17.3 µM (inactive) | 11.9 µM (inactive) | 25.5 µM (inactive) | 28.2 µM (inactive) | 19.4 µM (inactive) | 17.2 µM (inactive) |  | 20.6 µM (inactive) | 13.1 µM (inactive) | 18.7 µM (inactive) | 19.7 µM (inactive) | 29.9 µM (inactive) | 22.1 µM (inactive) | 16.8 µM (inactive) | 16.9 µM (inactive) | 15.7 µM (inactive) | 26.6 µM (inactive) | 18.5 µM (inactive)
7 | COc1ccc(-n2c(C)nc3ccc(NC4OC(CO)C(O)C(O)C4O)cc3c2=O)cc1 (configuration not stated) | > 100 µM (inactive) |  | > 100 µM (inactive) | > 100 µM (inactive) | > 100 µM (inactive) | > 100 µM (inactive) | > 100 µM (inactive) | > 100 µM (inactive) | > 100 µM (inactive) | > 100 µM (inactive) | > 100 µM (inactive) |  | > 100 µM (inactive) | > 100 µM (inactive) | > 100 µM (inactive) | > 100 µM (inactive) | > 100 µM (inactive) |  | > 100 µM (inactive) | > 100 µM (inactive)
8 | Cc1ccnc(NC(=S)Nc2ccc([N+](=O)[O-])cc2)c1 | > 100 µM (inactive) | > 100 µM (inactive) | 49 µM (inactive) |  | 35.5 µM (inactive) | > 100 µM (inactive) | 80.5 µM (inactive) | > 100 µM (inactive) | > 100 µM (inactive) | 56.5 µM (inactive) | > 100 µM (inactive) | 31.1 µM (inactive) | > 100 µM (inactive) | > 100 µM (inactive) |  | > 100 µM (inactive) |  | 26.4 µM (inactive) | > 100 µM (inactive) | 
9 | COc1ccc(NC(=O)C2=C(SC)C(C#N)C(=O)N=C2N)cc1 (configuration not stated) | 72.1 µM (inactive) | > 100 µM (inactive) | > 100 µM (inactive) | 26.9 µM (inactive) |  | > 100 µM (inactive) | > 100 µM (inactive) | > 100 µM (inactive) | > 100 µM (inactive) |  | > 100 µM (inactive) | 14 µM (inactive) | > 100 µM (inactive) | 54.3 µM (inactive) | > 100 µM (inactive) | > 100 µM (inactive) | > 100 µM (inactive) | > 100 µM (inactive) | > 100 µM (inactive) | 55.7 µM (inactive)
10 | Cc1ccc(S(=O)(=O)N/N=C2\CC3C4C=CC3C2C4)cc1 (configuration not stated) | 21 µM (inactive) | > 100 µM (inactive) | > 100 µM (inactive) | > 100 µM (inactive) | > 100 µM (inactive) | > 100 µM (inactive) | > 100 µM (inactive) | > 100 µM (inactive) | > 100 µM (inactive) | > 100 µM (inactive) |  | > 100 µM (inactive) | > 100 µM (inactive) | > 100 µM (inactive) | > 100 µM (inactive) | > 100 µM (inactive) | > 100 µM (inactive) | > 100 µM (inactive) | > 100 µM (inactive) | > 100 µM (inactive)
11 | COc1ccccc1NC(=O)C1=C(C)NC(C)=C(C(=O)Nc2ccccc2OC)C1c1ccco1 | 9.27 µM (inactive) | 4.71 µM (inactive) | 5.86 µM (inactive) | 4.2 µM (inactive) | 17.8 µM (inactive) | 6.41 µM (inactive) | 3.56 µM (inactive) | 3.02 µM (inactive) | 2.51 µM (inactive) |  | 8.49 µM (inactive) | 3.98 µM (inactive) | 3.92 µM (inactive) | 5.19 µM (inactive) | 13.4 µM (inactive) | 10.9 µM (inactive) | 23.6 µM (inactive) | 4.13 µM (inactive) | 3.59 µM (inactive) | 5.56 µM (inactive)
12 | CC(=O)ON(C(C)=O)c1ccc(-c2nc3ccccc3s2)cc1C | 50.2 µM (inactive) | 59 µM (inactive) | 10.4 µM (inactive) | > 100 µM (inactive) | 52.1 µM (inactive) | 32.6 µM (inactive) | 21.3 µM (inactive) | 21.5 µM (inactive) |  | 21.3 µM (inactive) | 70.5 µM (inactive) | 43.6 µM (inactive) | 32 µM (inactive) | 45.2 µM (inactive) | 31 µM (inactive) | 2.77 µM (inactive) | 33.8 µM (inactive) | 41 µM (inactive) |  | 20.5 µM (inactive)
13 | OCc1ccc2c(c1)CC1(Cc3ccccc3C1)C2 | 11.8 µM (inactive) |  |  | 13.6 µM (inactive) | 21.2 µM (inactive) | 21 µM (inactive) | 19.6 µM (inactive) | 11.5 µM (inactive) | 15.7 µM (inactive) | 16.8 µM (inactive) | 3.77 µM (inactive) | 17.1 µM (inactive) | 16.8 µM (inactive) | 7.11 µM (inactive) | 17.4 µM (inactive) | 26.1 µM (inactive) | 10.1 µM (inactive) | 18.3 µM (inactive) |  | 15.6 µM (inactive)
14 | CCCCOC(=O)N[C@H]1CCc2cc(OC)c(OC)c(OC)c2-c2ccc(SC)c(=O)cc21 | < 0.0231 µM (active) | < 0.01 µM (active) | < 0.01 µM (active) | < 0.01 µM (active) | < 0.01 µM (active) | < 0.0114 µM (active) | < 0.01 µM (active) | < 0.01 µM (active) | < 0.031 µM (active) | < 0.01 µM (active) |  | < 0.01 µM (active) | < 0.01 µM (active) | < 0.0369 µM (active) | < 0.01 µM (active) | 16.3 µM (inactive) | < 0.01 µM (active) | < 0.01 µM (active) | < 0.01 µM (active) | < 0.01 µM (active)
15 | Cc1ccc2c(c1)C(=O)C1(Cc3ccccc3C1=O)C2 (configuration not stated) | 1.86 µM (inactive) | > 100 µM (inactive) | > 100 µM (inactive) | > 100 µM (inactive) | > 100 µM (inactive) | > 100 µM (inactive) | > 100 µM (inactive) | > 100 µM (inactive) | 47 µM (inactive) | > 100 µM (inactive) |  | 30.1 µM (inactive) | > 100 µM (inactive) | > 100 µM (inactive) | > 100 µM (inactive) | > 100 µM (inactive) | > 100 µM (inactive) | > 100 µM (inactive) | > 100 µM (inactive) | > 100 µM (inactive)
16 | CC(C)(C)C(=O)C(C#N)C(=O)C(C)(C)C | > 100 µM (inactive) | > 100 µM (inactive) | > 100 µM (inactive) | > 100 µM (inactive) | > 100 µM (inactive) | > 100 µM (inactive) | > 100 µM (inactive) | > 100 µM (inactive) | > 100 µM (inactive) | > 100 µM (inactive) |  | > 100 µM (inactive) | > 100 µM (inactive) | > 100 µM (inactive) | > 100 µM (inactive) | > 100 µM (inactive) | > 100 µM (inactive) | > 100 µM (inactive) | > 100 µM (inactive) | > 100 µM (inactive)
